Laboratory results from paper PMC12131194, “Rational design, synthesis, and evaluation of novel polypharmacological compounds targeting NaV1.5, KV1.5, and K2P channels for atrial fibrillation” (The Journal of Biological Chemistry, 2025).
“And” between values parts separate entries of the source, which are not always exact repeats. Identical values can stand only once.

How the values were obtained:
h KV1.5 = molecular target: T1, h KV1.5 (Homo sapiens, UniProt P22460); experiment: TEVC recordings in X. laevis oocytes, KV1.5; format: cell-based; conditions: for Ionic current block IKur: from inhibition curves, used for simulation
T1 construct: h KV1.5 (KCNA5, NM_002234); expressed in transfected cells; host or cells: Xenopus laevis oocytes injected with cRNA
T1 sequence (P22460 whole entry): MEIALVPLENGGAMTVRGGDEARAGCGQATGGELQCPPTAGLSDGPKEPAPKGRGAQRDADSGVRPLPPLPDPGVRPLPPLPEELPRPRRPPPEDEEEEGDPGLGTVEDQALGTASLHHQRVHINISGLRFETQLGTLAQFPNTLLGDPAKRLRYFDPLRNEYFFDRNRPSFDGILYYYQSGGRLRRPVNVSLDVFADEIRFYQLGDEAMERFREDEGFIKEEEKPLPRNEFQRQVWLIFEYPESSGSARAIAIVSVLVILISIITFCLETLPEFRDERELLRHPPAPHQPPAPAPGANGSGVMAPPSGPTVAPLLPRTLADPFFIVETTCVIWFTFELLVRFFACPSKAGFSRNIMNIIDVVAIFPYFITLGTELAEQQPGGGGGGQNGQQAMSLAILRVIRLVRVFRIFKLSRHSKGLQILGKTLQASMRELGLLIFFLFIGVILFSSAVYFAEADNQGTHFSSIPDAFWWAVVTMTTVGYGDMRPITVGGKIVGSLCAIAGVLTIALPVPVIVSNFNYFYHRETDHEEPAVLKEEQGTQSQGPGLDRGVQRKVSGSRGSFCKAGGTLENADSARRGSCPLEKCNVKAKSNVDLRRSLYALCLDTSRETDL
Experimental: (§1) The two-electrode voltage clamp (TEVC) technique was used for electrophysiology tests. Channels were expressed in Xenopus laevis oocytes. The initial channel-blocking potential was assessed at 100 μM for the 10 synthesized compounds on TASK-1 and KV1.5 channels.
(§2) To obtain X. laevis oocytes, the frogs were anesthetized with 2 g/L of tricaine methanesulfonate, and the ovarian lobes were mechanically separated with forceps. The oocytes were incubated for 120 min in an OR2 solution containing in mM: NaCl 82.5, KCl 2, MgCl2 1, HEPES 5 (pH 7.5) supplemented with 2 mg/ml of collagenase II (Sigma) to remove residual connective tissue and obtain individual oocytes. Subsequently, the oocytes were washed with a ND96 solution containing in mM: NaCl 96, KCl 2, CaCl2 1.8, MgCl2 1, HEPES 5 (pH 7.5, adjusted with NaOH) and stored at 18 °C in ND96 solution supplemented with 1 ml of gentamicin (50 mg/L), sodium pyruvate (275 mg/L) and (90 mg/L) theophylline (inhibits further oocyte maturation) before and after RNA injection.
(§3) In order to overexpress the channel in the oocyte, each of the channels to be measured was subcloned (complementary DNA (cDNA); human TASK-1 (KCNK3, NM_002246), h KV1.5 (KCNA5, NM_002234), h NaV1.5 (hH1, M77235), TASK-4/TALK-2 (KCNK17, NM_AF358910), TREK-1 (KCNK2, AF004711) and Kir2.1 (KCNJ2, NM_017296) into pSGEM, pBF1 or pSP64 expression vector, and the cDNA was linearized with NheI or MluI. Complementary RNA (cRNA) was synthesized with the mMESSAGE mMACHINE-Kit (Ambion). The quality of the cRNA was tested on an agarose gel by electrophoresis. cRNA was quantified using a UV-Vis spectrophotometer (NanoDrop 2000). Subsequently, the channel was transfected in the oocytes in stages V and VI, for which […] (TASK-1, KV1.5 or TREK-1), 10 ng (NaV1.5 or TASK-4) o 2.5 ng (Kir2.1) per oocyte of cRNA was injected with a NanojectII microinjector (Drummond Scientific). The oocytes were stored in 24-well plates for 24 to 48 h at 18 °C. After this time, the overexpression of each channel was monitored through electrophysiology.
(§4) Two-electrode voltage clamp measurements were performed 24 or 48 h after cRNA injection at room temperature (20–22 °C) in ND96 recording solution with a TurboTEC-10CD (npi) amplifier and a Digidata 1550B (for TASK-1 and KV1.5) and 1440A (for NaV1.5) A/D converter from Axon Instruments. Micropipettes were fabricated from GB 150 TF-8P borosilicate glass capillaries (Science Products) elongated in a DMZ-Universal Puller (Zeitz, Germany). […] ND96 was used as bath solution. Data acquisition was performed using Clampex 10 software (Axon Instruments), and data were analyzed with ClampFit 10 (Axon Instruments) and Origin 7 (Origin Lab Corporation).
(§5) For compound inhibition testing, from a holding potential of −80 mV a first test pulse to 0 mV of 1 s duration was followed by a repolarization step at −80 mV for 1 s, directly followed by another 1 s test pulse at +40 mV. The sweep time interval was 10 s for KV1.5 and TASK-1 channels. For the NaV1.5 channel, the block was analyzed with voltage steps from a holding potential of −80 mV. A first depolarizing pulse to −30 mV of 50 ms duration was applied, followed by a 5 ms step to −80 mV. The sweep time interval was 5 s. The compounds were applied at different concentrations to determine the half-maximal inhibitory concentration (IC50), using a fit to the Hill equation.
(§6) To test for a putative voltage-dependence of the block by the compound 6f in KV1.5, a 1.5 s voltage step protocol from −80 to +80 mV with +20 mV increments was used. The holding potential was −80 mV and the sweep time interval was 10 s. Currents were analyzed at the end of the voltage pulse. For TASK-1, voltage-dependence of block was probed using a high-potassium solution (KD96) containing in mM: KCl 96, NaCl 2, CaCl2 1.8, MgCl2 1, HEPES 5, (pH 7.5, adjusted with KOH). From a holding potential of 0 mV, voltage was stepped from −80 mV to +80 mV for 1.5 s in +20 mV steps every 10 s. […]

human TASK-1 = human TASK-1 (Homo sapiens, UniProt O14649); experiment: TEVC recordings in X. laevis oocytes, TASK-1; format: cell-based; design: human TASK-1 (KCNK3, NM_002246); expressed in transfected cells; host or cells: Xenopus laevis oocytes injected with cRNA; conditions: for Ionic current block IK2P: from inhibition curves, used for simulation
human TASK-1, sequence (O14649 whole entry): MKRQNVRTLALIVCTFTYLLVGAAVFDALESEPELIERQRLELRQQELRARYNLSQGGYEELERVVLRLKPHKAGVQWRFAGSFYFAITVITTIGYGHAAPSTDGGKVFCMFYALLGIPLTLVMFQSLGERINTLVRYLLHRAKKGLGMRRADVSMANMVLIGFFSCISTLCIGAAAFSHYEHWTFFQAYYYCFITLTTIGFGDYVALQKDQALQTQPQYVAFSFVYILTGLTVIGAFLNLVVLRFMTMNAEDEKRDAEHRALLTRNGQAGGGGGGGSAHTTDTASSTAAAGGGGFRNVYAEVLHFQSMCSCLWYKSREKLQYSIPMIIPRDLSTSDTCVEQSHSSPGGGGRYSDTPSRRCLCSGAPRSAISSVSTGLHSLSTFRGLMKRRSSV
Experimental: as §1, §2, §3, §4, §5, §6

[1] = 100 μM, +40 mV, oocytes, mean ± SD
[2] = X. laevis oocytes, TEVC, block at +40 mV

Ionic current block IKur (h KV1.5; 1 μM): 0%
Ionic current block IKur (h KV1.5; 10 μM): 2.5%
inhibition at 100 µM (h KV1.5; [1]): 55.8 ± 11.5%
Ionic current block IKur (h KV1.5; 100 μM): 50%
IC50 (h KV1.5; [2]): 81500 nM
Voltage-dependence of block of KV1.5 (h KV1.5; oocytes, 100 μM): no significant voltage-dependence
Ionic current block IK2P (human TASK-1; 1 μM): 58%
Ionic current block IK2P (human TASK-1; 10 μM): 75%
inhibition at 100 µM (human TASK-1; [1]): 84.1 ± 10.7%
Ionic current block IK2P (human TASK-1; 100 μM): 85%
IC50 (human TASK-1; [2]): ~310 nM and 310 nM
Voltage-dependence of block of TASK-1 (human TASK-1; oocytes, KD96 solution): no significant voltage-dependence
Structure (SMILES): CCCCN(CCCC)CC(=O)Nc1ccc(OC)cc1OC [Compound 6f, 2-(dibutylamine)-N-(2,4-dimethoxiphenyl)acetamide]
